Data: patent US20140051679A1, “KINASE INHIBITORS AND METHOD OF TREATING CANCER WITH SAME” (UNIVERISTY HEALTH NETWORKS, priority 2011, published 2014)

Tests used:
[1] = tested on: Colon tumor initiating cells (TICs), 12 colon; experiment: Colon tumor-initiating cell growth inhibition (Alamar Blue); type: cell-based; conditions: 216 h, 9 days, read-out: GI50 range 12 colon
[2] = target: T1, Aurora B (Homo sapiens, UniProt Q96GD4); experiment: Aurora B inhibition assay (Z-Lyte); type: biochemical; conditions: 28 nM Aurora B, 128 μM ATP; read-out: IC50 Ranges Aurora B
T1 construct: purchased Invitrogen PV3970
Method: Aurora B inhibition was determined using the Z-Lyte assay kit from Invitrogen. The assay was performed using the recommended manufacturer's instructions with 128 μM ATP and 28 nM Aurora B (Invitrogen cat #PV3970). The % inhibition values were determined according to the manufacturer's directions and IC50 values were obtained using a non-linear 4 point logistic curve fit (XLfit4, IDBS)

[3] = tested on: OVCAR-3 ovarian cancer cells; experiment: Cell growth inhibition, Sulforhodamine B assay, OVCAR-3; type: cell-based; conditions: Homo sapiens, 120 h, 5 days culture, SRB assay, read-out: Cell Line GI50 Range OVCAR-3
[4] = tested on: HT29 colon cancer cells; experiment: Cell growth inhibition, Sulforhodamine B assay, HT29; type: cell-based; conditions: Homo sapiens, HT-29, 120 h, 5 days culture, SRB assay, read-out: Cell Line GI50 Range HT29
[5] = tested on: MDA-MB-468 breast cancer cells; experiment: Cell growth inhibition, Sulforhodamine B assay, MDA-MB-468; type: cell-based; conditions: Homo sapiens, 120 h, 5 days culture, SRB assay, read-out: Cell Line GI50 Range MDA-MB-468
[6] = target: T2, human PLK4 (Homo sapiens, UniProt O00444); experiment: PLK4 inhibition assay (indirect ELISA); type: biochemical; conditions: GST-PLK4 4 nM, 15 μM ATP; read-out: IC50 Ranges PLK4
T2 construct: amino terminal GST fusion of residues 1-391 of human PLK4; made in house; host or cells: E. coli
T2 sequence (O00444 1-391): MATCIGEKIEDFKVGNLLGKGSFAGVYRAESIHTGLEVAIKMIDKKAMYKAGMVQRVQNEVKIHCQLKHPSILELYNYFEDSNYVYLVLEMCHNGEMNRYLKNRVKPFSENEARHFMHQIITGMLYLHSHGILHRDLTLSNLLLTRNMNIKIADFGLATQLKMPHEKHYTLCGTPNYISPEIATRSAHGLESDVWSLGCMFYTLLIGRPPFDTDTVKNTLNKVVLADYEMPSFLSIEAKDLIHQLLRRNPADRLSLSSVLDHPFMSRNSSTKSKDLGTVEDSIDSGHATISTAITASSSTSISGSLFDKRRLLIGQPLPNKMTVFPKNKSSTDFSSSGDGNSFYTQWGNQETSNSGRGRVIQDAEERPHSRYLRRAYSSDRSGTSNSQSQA
Summary of the method: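 Dephosphorylated GST-tagged human PLK4 (residues 1-391, E. coli), 4 nM, preincubated 15 min with compound, then reacted 30 min with 15 μM ATP on MBP-coated plates (50 mM HEPES pH 7.5, 10 mM MgCl2, 0.01% Brij 35). Phospho-MBP detected by antibody ELISA at 450 nm. Tested at 10 μM or 10-point titrations; IC50 from 4-parameter logistic fit.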

[7] = tested on: HCT116 colon cancer cells; experiment: Cell growth inhibition, Sulforhodamine B assay, HCT116; type: cell-based; conditions: Homo sapiens, HCT-116, 120 h, 5 days culture, SRB assay, read-out: Cell Line GI50 Range HCT116
[8] = target: T3, human TTK (Homo sapiens, UniProt P33981); experiment: TTK inhibition assay (indirect ELISA); type: biochemical; conditions: GST-TTK 0.68 nM, 16 μM ATP; read-out: IC50 Ranges TTK
T3 construct: amino terminal GST fusion of full length human TTK; purchased Invitrogen
T3 sequence (P33981 1-857): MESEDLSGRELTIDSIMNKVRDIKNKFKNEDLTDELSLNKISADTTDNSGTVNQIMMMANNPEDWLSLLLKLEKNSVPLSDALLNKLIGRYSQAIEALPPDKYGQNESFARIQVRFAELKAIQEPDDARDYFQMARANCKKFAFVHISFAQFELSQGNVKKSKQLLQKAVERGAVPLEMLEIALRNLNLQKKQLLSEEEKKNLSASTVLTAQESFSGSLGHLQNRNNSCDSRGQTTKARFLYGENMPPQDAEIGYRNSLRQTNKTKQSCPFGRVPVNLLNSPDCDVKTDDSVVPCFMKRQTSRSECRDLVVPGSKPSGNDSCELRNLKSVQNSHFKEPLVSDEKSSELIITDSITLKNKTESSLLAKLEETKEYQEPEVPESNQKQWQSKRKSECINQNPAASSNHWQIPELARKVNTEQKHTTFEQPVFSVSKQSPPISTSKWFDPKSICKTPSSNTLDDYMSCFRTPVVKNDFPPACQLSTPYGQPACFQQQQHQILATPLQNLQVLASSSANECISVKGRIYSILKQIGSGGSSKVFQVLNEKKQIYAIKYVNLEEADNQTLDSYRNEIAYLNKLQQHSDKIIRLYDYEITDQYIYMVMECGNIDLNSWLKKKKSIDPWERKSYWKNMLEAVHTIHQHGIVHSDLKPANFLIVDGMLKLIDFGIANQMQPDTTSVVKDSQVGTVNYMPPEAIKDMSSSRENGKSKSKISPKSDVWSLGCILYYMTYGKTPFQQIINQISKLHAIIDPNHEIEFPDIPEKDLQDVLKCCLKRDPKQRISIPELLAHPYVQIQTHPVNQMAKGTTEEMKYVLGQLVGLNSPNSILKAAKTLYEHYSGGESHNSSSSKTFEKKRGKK

[9] = tested on: Ovarian TICs, 2393A ovarian; experiment: Ovarian tumor-initiating cell growth inhibition (Alamar Blue); type: cell-based; conditions: 144 h, 6 days, read-out: GI50 range 2393A ovarian
[10] = tested on: MDA-MB-231 breast cancer cells; experiment: Cell growth inhibition, Sulforhodamine B assay, MDA-MB-231; type: cell-based; conditions: Homo sapiens, 120 h, 5 days culture, SRB assay, read-out: Cell Line GI50 Range MDA-MB-231

T1 sequence (Q96GD4 whole entry): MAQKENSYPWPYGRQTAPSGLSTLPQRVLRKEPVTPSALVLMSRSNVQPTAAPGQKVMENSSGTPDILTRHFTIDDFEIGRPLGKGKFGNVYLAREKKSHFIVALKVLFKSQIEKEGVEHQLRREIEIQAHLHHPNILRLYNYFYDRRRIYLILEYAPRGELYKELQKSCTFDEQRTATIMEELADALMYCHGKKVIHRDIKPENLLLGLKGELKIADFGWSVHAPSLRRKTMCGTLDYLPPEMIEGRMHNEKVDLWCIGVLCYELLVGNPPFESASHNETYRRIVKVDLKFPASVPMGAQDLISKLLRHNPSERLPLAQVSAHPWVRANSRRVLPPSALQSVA

SMILES | GI50 [1] [µM] | IC50 [2] [µM] | GI50 [3] [µM] | GI50 [4] [µM] | GI50 [5] [µM] | IC50 [6] [µM] | GI50 [7] [µM] | IC50 [8] [µM] | GI50 [9] [µM] | GI50 [10] [µM]
C[C@H]1CCCN1[C@H](C(=O)Nc1ccc2[nH]nc(-c3ccc(OC4CCN(C)CC4)cc3)c2c1)c1ccsc1 [Example A41, (S)—N-(3-(4-((1-methylpiperidin-4-yl)oxy)phenyl)-1H-indazol-5-yl)-2-((S)-2-methylpyrrolidin-1-yl)-2-(thiophen-3-yl)acetamide] | ≤ 5 | ≤ 5 | ≤ 5 | ≤ 5 | ≤ 5 | ≤ 5 | ≤ 5 | ≤ 5 | ≤ 5 | –
O=C(NC(c1ccsc1)C1CC1)c1ccc2[nH]nc(-c3ccc(N4CCOCC4)cc3)c2c1 (stereo not shown) [Example A35, N-(cyclopropyl(thiophen-3-yl)methyl)-3-(4-morpholinophenyl)-1H-indazole-5-carboxamide] | ≤ 5 | ≤ 5 | ≤ 5 | ≤ 5 | ≤ 5 | ≤ 5 | ≤ 5 | ≤ 5 | ≤ 5 | ≤ 5
O=C(NC(c1ccccc1)C1CC1)c1ccc2[nH]nc(-c3ccc(N4CCOCC4)cc3)c2c1 (stereo not shown) [Example A12, N-(cyclopropyl(phenyl)methyl)-3-(4-morpholinophenyl)-1H-indazole-5-carboxamide] | ≤ 5 | ≤ 5 | – | – | ≤ 5 | ≤ 5 | ≤ 5 | ≤ 5 | ≤ 5 | –
CCc1cccc(CC)c1NC(=O)Nc1ccc2[nH]nc(-c3ccc(OC4CCN(C)CC4)cc3)c2c1 [Example A46] | ≤ 5 | ≤ 5 | ≤ 5 | ≤ 5 | ≤ 5 | ≤ 5 | ≤ 5 | ≤ 5 | ≤ 5 | ≤ 5
CN1CCC(Oc2ccc(-c3n[nH]c4ccc(C(=O)NC(c5ccsc5)C5CC5)cc34)cc2)CC1 (stereo not shown) [Example A33, N-(cyclopropyl(thiophen-3-yl)methyl)-3-(4-((1-methylpiperidin-4-yl)oxy)phenyl)-1H-indazole-5-carboxamide] | ≤ 5 | ≤ 5 | ≤ 5 | ≤ 5 | ≤ 5 | ≤ 5 | ≤ 5 | ≤ 5 | ≤ 5 | ≤ 5
O=C(Nc1ccc2[nH]nc(-c3ccc(N4CCOCC4)cc3)c2c1)C(c1ccsc1)N1CCCC1 (stereo not shown) [Example A4, N-(3-(4-morpholinophenyl)-1H-indazol-5-yl)-2-(pyrrolidin-1-yl)-2-(thiophen-3-yl)acetamide] | ≤ 5 | ≤ 5 | 5 to 20 | ≤ 5 | ≤ 5 | ≤ 5 | ≤ 5 | ≤ 5 | ≤ 5 | ≤ 5
CN1CCC(Nc2ccc(-c3n[nH]c4ccc(NC(=O)C(c5ccsc5)N5CCCC5)cc34)cc2)CC1 (stereo not shown) [Example A25] | ≤ 5 | ≤ 5 | ≤ 5 | ≤ 5 | ≤ 5 | ≤ 5 | ≤ 5 | ≤ 5 | ≤ 5 | ≤ 5
O=C(Nc1ccc2[nH]nc(-c3ccc(OC4CCOCC4)cc3)c2c1)C(c1ccsc1)N1CCCC1 (stereo not shown) [Example A29, 2-(pyrrolidin-1-yl)-N-(3-(4-((tetrahydro-2H-pyran-4-yl)oxy)phenyl)-1H-indazol-5-yl)-2-(thiophen-3-yl)acetamide] | ≤ 5 | ≤ 5 | 5 to 20 | ≤ 5 | ≤ 5 | ≤ 5 | ≤ 5 | ≤ 5 | ≤ 5 | 5 to 20
